Experimental data taken from ChEMBL document CHEMBL3877294, “Discovery of Ruzasvir (MK-8408): A Potent, Pan-Genotype HCV NS5A Inhibitor with Optimized Activity against Common Resistance-Associated Polymorphisms” (J Med Chem, 2017).

How the values were obtained:
[1] = system: Hepatitis C virus subtype 1a; experiment: Selectivity ratio for EC90 for HCV genotype-1a NS5A Y93H mutant to EC90 for HCV genotype-1a NS5A
Huh-7 [2] = experiment: Inhibition of HCV genotype-2b NS5A harboring methionine at position 31 infected in human HuH7 cells by luciferase reporter gene assay; format: cell-based; settings: Hepatitis C virus subtype 2b
[3] = system: T1, Nonstructural protein 5A (Hepatitis C virus), Q5L478 [Y93H]; experiment: Inhibition of HCV genotype-1a NS5A Y93H mutant infected in human HuH7 cells by luciferase reporter gene assay; format: cell-based; settings: Hepatitis C virus subtype 1a; Huh-7
T1 sequence (whole entry): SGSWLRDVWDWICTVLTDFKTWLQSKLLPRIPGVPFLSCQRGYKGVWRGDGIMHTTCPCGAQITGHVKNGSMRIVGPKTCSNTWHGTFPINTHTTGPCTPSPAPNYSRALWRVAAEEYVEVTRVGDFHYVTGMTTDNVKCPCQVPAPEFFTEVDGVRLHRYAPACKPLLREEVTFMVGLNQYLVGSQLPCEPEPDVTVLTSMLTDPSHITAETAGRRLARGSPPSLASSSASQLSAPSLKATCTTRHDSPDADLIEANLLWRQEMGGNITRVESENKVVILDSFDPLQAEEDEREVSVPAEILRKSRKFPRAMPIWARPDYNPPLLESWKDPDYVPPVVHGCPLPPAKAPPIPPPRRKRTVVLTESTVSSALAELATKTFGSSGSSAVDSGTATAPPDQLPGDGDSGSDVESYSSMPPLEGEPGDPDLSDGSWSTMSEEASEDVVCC

Huh-7 [4] = experiment: Inhibition of HCV genotype-1a NS5A infected in human HuH7 cells by luciferase reporter gene assay; format: cell-based; settings: Hepatitis C virus subtype 1a
[5] = Selectivity ratio for EC90 for HCV genotype-2b NS5A harboring methionine at position 31 to EC90 for HCV genotype-1a NS5A
Huh-7 [6] = experiment: Inhibition of HCV genotype-3a NS5A infected in human HuH7 cells by luciferase reporter gene assay; format: cell-based; settings: Hepatitis C virus subtype 3a
[7] = system: Nonstructural protein 5A (Hepatitis C virus), Q5L478 [UNDEFINED MUTATION]; experiment: Inhibition of HCV genotype-1a NS5A L31V mutant infected in human HuH7 cells by luciferase reporter gene assay; format: cell-based; settings: Hepatitis C virus subtype 1a; Huh-7
Huh-7 [8] = experiment: Inhibition of HCV genotype-4a NS5A infected in human HuH7 cells by luciferase reporter gene assay; format: cell-based; settings: Hepatitis C virus subtype 4a
[9] = Plasma clearance in rat at 2 mg/kg, iv measured after 24 hrs by LC/MS method; format: ADME, organism-based
[10] = Drug uptake in dog at 5 mg/kg, po measured at 24 hrs post dose by LC/MS method; format: ADME, organism-based, Canis lupus familiaris; settings: in vivo, read-out: Drug uptake
[11] = Plasma clearance in dog at 1 mg/kg, iv measured after 24 hrs by LC/MS method; format: ADME, organism-based, Canis lupus familiaris
[12] = Selectivity ratio for EC90 for HCV genotype-4a NS5A to EC90 for HCV genotype-1a NS5A
[13] = AUC (0 to t) in dog at 5 mg/kg, po measured after 24 hrs by LC/MS method; format: ADME, organism-based, Canis lupus familiaris; design: time < 24 hr, dose 5 mg/kg, route oral; settings: in vivo
[14] = Drug uptake in rat at 10 mg/kg, po measured at 24 hrs post dose by LC/MS method; format: ADME, organism-based; settings: in vivo, read-out: Drug uptake
[15] = Half life in rat at 2 mg/kg, iv by LC/MS method; format: ADME, organism-based; settings: in vivo
[16] = Selectivity ratio for EC90 for HCV genotype-3a NS5A to EC90 for HCV genotype-1a NS5A
[17] = Half life in dog at 1 mg/kg, iv by LC/MS method; format: ADME, organism-based, Canis lupus familiaris; settings: in vivo
[18] = Oral bioavailability in dog at 5 mg/kg measured after 24 hrs by LC/MS method; format: ADME, organism-based, Canis lupus familiaris; settings: in vivo
[19] = AUC in rat at 10 mg/kg, po measured after 24 hrs by LC/MS method; format: ADME, organism-based; design: time < 24 hr, dose 10 mg/kg, route oral; settings: in vivo
[20] = Oral bioavailability in rat at 10 mg/kg measured after 24 hrs by LC/MS method; format: ADME, organism-based; settings: in vivo

| Structure (SMILES) | Selectivity ratio [1] | EC90 (Huh-7 [2]) | EC90 [3] | EC90 (Huh-7 [4]) | Selectivity ratio [5] | EC90 (Huh-7 [6]) | EC90 [7] | EC90 (Huh-7 [8]) | further results |
| --- | --- | --- | --- | --- | --- | --- | --- | --- | --- |
| CCc1ccc([C@@H]2Oc3cc(-c4cnc([C@@H]5CCCN5C(=O)[C@@H](NC(=O)OC)C(C)C)[nH]4)ccc3-c3cc4cc(-c5cnc([C@@H]6CCCN6C(=O)[C@@H](NC(=O)OC)C(C)C)[nH]5)ccc4n32)s1 | 680 | 0.25 nM | 3.4 nM | 0.005 nM | 50 | – | – | – | – |
| COC(=O)N[C@H](C(=O)N1CCC[C@H]1c1ncc(-c2ccc3c(c2)OC(c2ccc(C4CC4)s2)n2c-3cc3cc(-c4cnc([C@@H]5CCCN5C(=O)[C@@H](NC(=O)OC)C(C)C)[nH]4)ccc32)[nH]1)C(C)C (some centres undefined) | 400 | 0.35 nM | 1.2 nM | 0.003 nM | 117 | – | – | – | – |
| COC(=O)N[C@H](C(=O)N1CCC[C@H]1c1ncc(-c2ccc3c(c2)OC(c2ccc(Cl)s2)n2c-3cc3cc(-c4cnc([C@@H]5CCCN5C(=O)[C@@H](NC(=O)OC)C(C)C)[nH]4)ccc32)[nH]1)C(C)C (mixture of isomers) | 200 | 1 nM | 4 nM | 0.02 nM | 50 | – | – | – | – |
| COC(=O)N[C@H](C(=O)N1CCC[C@H]1c1ncc(-c2cc(F)c3c(c2)O[C@@H](c2ccc4c(c2)OCCC4)n2c-3cc3cc(-c4cnc([C@@H]5CCCN5C(=O)[C@@H](NC(=O)OC)C(C)C)[nH]4)ccc32)[nH]1)C(C)C | 167 | 0.3 nM | 0.5 nM | 0.003 nM | 100 | – | – | – | – |
| CCOc1cccc([C@@H]2Oc3cc(-c4cnc([C@@H]5CCCN5C(=O)[C@@H](NC(=O)OC)C(C)C)[nH]4)ccc3-c3cc4cc(-c5cnc([C@@H]6CCCN6C(=O)[C@@H](NC(=O)OC)C(C)C)[nH]5)ccc4n32)c1 | 800 | 22 nM | 16 nM | 0.02 nM | 1100 | – | – | – | – |
| COC(=O)N[C@H](C(=O)N1CCC[C@H]1c1ncc(-c2ccc3c(c2)O[C@@H](c2ccc(C4CC4)cc2)n2c-3cc3cc(-c4cnc([C@@H]5CCCN5C(=O)[C@@H](NC(=O)OC)C(C)C)[nH]4)ccc32)[nH]1)C(C)C | 1900 | 1 nM | 8 nM | 0.004 nM | 300 | – | – | – | – |
| CCOc1cccc([C@@H]2Oc3cc(-c4cnc([C@@H]5CCCN5C(=O)[C@@H](NC(=O)OC)C(C)C)[nH]4)cc(F)c3-c3cc4cc(-c5cnc([C@@H]6CCCN6C(=O)[C@@H](NC(=O)OC)C(C)C)[nH]5)ccc4n32)c1 | 200 | 8 nM | 2 nM | 0.01 nM | 800 | – | – | – | – |
| COC(=O)N[C@H](C(=O)N1CCC[C@H]1c1ncc(-c2cc(F)c3c(c2)OC(c2cccs2)n2c-3cc3cc(-c4cnc([C@@H]5CCCN5C(=O)[C@@H](NC(=O)OC)C(C)C)[nH]4)ccc32)[nH]1)C(C)C (mixture of isomers) | 100 | 8 to 8.2 nM | 3 to 3.4 nM | 0.03 nM | 267 | 0.016 nM | 0.76 nM | – | – |
| CCc1ncc(C2Oc3cc(-c4cnc([C@@H]5CCCN5C(=O)[C@@H](NC(=O)OC)C(C)C)[nH]4)cc(F)c3-c3cc4cc(-c5cnc([C@@H]6C[C@H]7C[C@H]7N6C(=O)[C@@H](NC(=O)OC)C(C)C)[nH]5)ccc4n32)s1 (some centres undefined) | – | 0.21 nM | 0.04 nM | 0.005 nM | – | 0.012 nM | 0.022 nM | 0.008 nM | – |
| COC(=O)N[C@H](C(=O)N1CCC[C@H]1c1ncc(-c2cc(F)c3c(c2)OC(c2csc(C4CC4)c2)n2c-3cc3cc(-c4cnc([C@@H]5CCCN5C(=O)[C@@H](NC(=O)OC)C(C)C)[nH]4)ccc32)[nH]1)C(C)C (some centres undefined) | – | 0.88 nM | 0.26 nM | 0.002 nM | – | 0.007 nM | 0.06 nM | 0.003 nM | – |
| CCCc1ncc(C2Oc3cc(-c4cnc([C@@H]5CCCN5C(=O)[C@@H](NC(=O)OC)C(C)C)[nH]4)cc(F)c3-c3cc4cc(-c5cnc([C@@H]6C[C@H]7C[C@H]7N6C(=O)[C@@H](NC(=O)OC)C(C)C)[nH]5)ccc4n32)s1 (some centres undefined) | – | 0.14 nM | 0.021 nM | 0.005 nM | – | 0.009 nM | 0.013 nM | 0.012 nM | – |
| COC(=O)N[C@H](C(=O)N1CCC[C@H]1c1ncc(-c2cc(F)c3c(c2)OC(c2ccsc2)n2c-3cc3cc(-c4cnc([C@@H]5CCCN5C(=O)[C@@H](NC(=O)OC)C(C)C)[nH]4)ccc32)[nH]1)C(C)C (some centres undefined) | – | 3.7 nM | 0.59 nM | 0.002 nM | – | 0.013 nM | 0.13 nM | 0.01 nM | – |
| COC(=O)N[C@H](C(=O)N1CCC[C@H]1c1ncc(-c2cc(F)c3c(c2)OC(c2ccc(C(=O)N(C)C)s2)n2c-3cc3cc(-c4cnc([C@@H]5CCCN5C(=O)[C@@H](NC(=O)OC)C(C)C)[nH]4)ccc32)[nH]1)C(C)C (some centres undefined) | – | 0.45 nM | 0.47 nM | 0.014 nM | – | 0.12 nM | 0.035 nM | 0.024 nM | – |
| CCc1ncc(C2Oc3cc(-c4cnc([C@@H]5CCCN5C(=O)[C@@H](NC(=O)OC)C(C)C)[nH]4)cc(F)c3-c3cc4cc(-c5cnc([C@@H]6CCCN6C(=O)[C@@H](NC(=O)OC)C(C)C)[nH]5)ccc4n32)s1 (some centres undefined) | – | 0.097 nM | 0.14 nM | 0.004 nM | – | 0.009 nM | 0.048 nM | 0.011 nM | – |
| COC(=O)N[C@H](C(=O)N1CCC[C@H]1c1ncc(-c2cc(F)c3c(c2)OC(c2ccc(C4CC4)s2)n2c-3cc3cc(-c4cnc([C@@H]5CCCN5C(=O)[C@@H](NC(=O)OC)C(C)C)[nH]4)ccc32)[nH]1)C(C)C (some centres undefined) | 37 | 0.16 nM | 0.11 nM | 0.003 nM | 53 to 200 | 0.007 nM | 0.02 nM | 0.009 nM | clearance [9]: 11 mL/min/kg; concentration at 24 h [10]: 134 nM; clearance [11]: 1.5 mL/min/kg; Selectivity ratio [12]: 3; AUC(0-t) at 24 h [13]: 10.6 µM·h; concentration at 24 h [14]: 16 nM; half-life [15]: 7 h; Selectivity ratio [16]: 2; half-life [17]: 10 h; bioavailability [18]: 11%; AUC at 24 h [19]: 1.1 µM·h; bioavailability [20]: 5% |
| COC(=O)N[C@H](C(=O)N1CCC[C@H]1c1ncc(-c2cc(F)c3c(c2)OC(c2ccc(C(F)F)s2)n2c-3cc3cc(-c4cnc([C@@H]5CCCN5C(=O)[C@@H](NC(=O)OC)C(C)C)[nH]4)ccc32)[nH]1)C(C)C (some centres undefined) | – | 0.26 nM | 0.14 nM | 0.002 nM | – | 0.007 nM | 0.016 nM | 0.005 nM | – |
